# Test results from US7759373B2, “Large conductance calcium-activated K channel opener” (Mitsubishi Tanabe Pharma Corporation, priority 2001, dated 2010).
# Tested on: rhythmic bladder contractions induced by substance P
# Experiment: Inhibitory effect on the rhythmic bladder contractions induced by substance P in anesthetized rats
# Type: in vivo, rat
# Settings: time during which frequency of rhythmic contraction was completely inhibited, 0.25 mg/kg of the compound, substance P infusion
# Method: Inhibitory effect on the rhythmic bladder contractions induced by substance P in anesthetized rats
# For the experiments, Sprague-Dawley female rats (9 to 12 weeks old) weighing between 200 to 300 g were used. After urethane anesthetization (subcutaneously administered with a dose of 1.2 g/kg), cannulae were placed in both right and left femoral veins. One intravenous catheter was used for administration of compounds, and the other was for the substance P (0.33 μg/kg/min) infusion. We also cannulated into ureter to pass urine. Polyethylene catheters were inserted into carotid artery for continuous monitoring of arterial blood pressure and heart rate. For continuous infusion, transurethral bladder catheter was inserted into the bladder through the urethra and tied in place by a ligature around the urethral orifice. One end of the catheter was attached to a pressure transducer in order to measure intravesical pressure. The other end of the catheter was used for infusion of saline into the bladder. After stabilization of blood pressure and heart rate and after the bladder was emptied, cystometry was performed by filling the bladder slowly with about 0.6 ml of saline. After about 10 minutes, intravenous infusion of substance P (0.33 μg/kg/min) was started for stabilization of the micturition reflex. Compounds were administered after stable rhythmic bladder contraction was obtained over 15 minutes. All compounds were dissolved or suspended in saline containing 0.5% Tween 80 for intravenous administration (0.1 ml/kg).
# A 100% inhibition time (minute) of the selected compounds of the present invention is shown in the following Table 65 with a rank of A, B or C. These ranges are as mentioned below. A≧20>B≧10>C (minute)
row,SMILES,100% inhibition time range
1,Cc1ccc2sc(-c3nc(CC(=O)O)c(-c4ccc(Cl)s4)o3)cc2c1 [Preparation Example 450],B (A≧20>B≧10>C (minute))
2,O=C(O)Cc1nc(-c2ccc3c(c2)CCCS3)oc1-c1ccc(Cl)s1 [Preparation Example 456],C (A≧20>B≧10>C (minute))
3,CSc1cccc(-c2nc(CC(=O)O)c(-c3ccc(Cl)s3)o2)c1 [Preparation Example 457],B (A≧20>B≧10>C (minute))
4,O=C(O)Cc1nc(-c2cc3ccccc3[nH]2)oc1-c1ccc(Cl)s1 [Preparation Example 466],B (A≧20>B≧10>C (minute))
5,Cc1cc(-c2nc(CC(=O)O)c(-c3ccc(Cl)s3)o2)sc1C [Preparation Example 467],A (A≧20>B≧10>C (minute))
6,O=C(O)Cc1nc(-c2cc3ncccc3s2)oc1-c1ccc(Cl)s1 [Preparation Example 470],B (A≧20>B≧10>C (minute))
7,Cn1c(-c2nc(CC(=O)O)c(-c3ccc(Cl)s3)o2)cc2ccccc21 [Preparation Example 472],A (A≧20>B≧10>C (minute))
8,Cc1cc(-c2nc(CC(=O)O)c(-c3ccc(Cl)cc3)o2)sc1C [Preparation Example 474],C (A≧20>B≧10>C (minute))
9,COc1ccc(-c2nc(CC(=O)O)c(-c3ccc(Cl)cc3)o2)cc1 [Preparation Example 475],B (A≧20>B≧10>C (minute))
10,CC(C)c1ncc(-c2nc(CC(=O)O)c(-c3ccsc3)o2)cn1 [Preparation Example 476],B (A≧20>B≧10>C (minute))
11,"OCc1[nH]c(-c2csc(Cl)c2)nc1-c1cccnc1 [Preparation Example 482, 2-(5-chloro-thiophen-3-yl)-5-hydroxymethyl-4-(3-pyridyl)imidazole]",C (A≧20>B≧10>C (minute))
12,"Cl.O=C(O)Cc1nc(-c2ccc(F)cc2)oc1-c1cccnc1 [Preparation Example 484, 2-(4-fluoro-phenyl)-5-(3-pyridyl)oxazol-4-yl acetic acid hydrochloride]",B (A≧20>B≧10>C (minute))
13,CN(C)c1ncc(-c2nc(-c3cccs3)c(CC(=O)O)o2)cn1 [Preparation Example 505],B (A≧20>B≧10>C (minute))
14,CN(C)c1ncc(-c2nc(-c3ccc(Cl)cc3)c(CC(=O)O)o2)cn1 [Preparation Example 513],C (A≧20>B≧10>C (minute))
15,COc1ccc(-c2nc(-c3ccc(Cl)s3)c(CC(=O)O)o2)cc1 [Preparation Example 516],B (A≧20>B≧10>C (minute))
16,N#Cc1cccc(-c2oc(-c3ccc(F)cc3)nc2CC(=O)O)c1 [Preparation Example 522],B (A≧20>B≧10>C (minute))
17,COc1ccc(-c2nc(CC(=O)O)c(-c3ccc(Cl)s3)o2)cc1 [Preparation Example 523],B (A≧20>B≧10>C (minute))
18,COc1ccc(-c2nc(CC(=O)O)c(-c3ccc(Cl)c(F)c3)o2)cc1 [Preparation Example 525],A (A≧20>B≧10>C (minute))
19,O=C(O)Cc1nc(-c2ccc(N3CCSC3)nc2)oc1-c1ccsc1 [Preparation Example 529],B (A≧20>B≧10>C (minute))
20,CCN(CC)c1ccc(-c2nc(CC(=O)O)c(-c3ccsc3)o2)cn1 [Preparation Example 530],C (A≧20>B≧10>C (minute))
21,CCc1nc(-c2ccc(F)cc2)oc1-c1cccnc1 [Preparation Example 532],C (A≧20>B≧10>C (minute))
22,O=C(O)Cc1sc(-c2ccc(F)cc2)nc1-c1ccc(Cl)s1 [Preparation Example 568],A (A≧20>B≧10>C (minute))
23,O=C(O)Cc1sc(-c2cc3ccccc3s2)nc1-c1ccc(Cl)s1 [Preparation Example 569],A (A≧20>B≧10>C (minute))
24,COc1ccc(-c2nc(-c3ccc(Cl)s3)c(CC(=O)O)s2)cc1 [Preparation Example 570],A (A≧20>B≧10>C (minute))
25,CN(C)c1ccc(-c2nc(-c3ccc(Cl)s3)c(CC(=O)O)s2)cn1 [Preparation Example 571],A (A≧20>B≧10>C (minute))
26,O=C(O)Cc1sc(-c2ccc(F)cc2)nc1-c1ccc(Cl)cc1 [Preparation Example 573],B (A≧20>B≧10>C (minute))
27,O=C(O)Cc1sc(-c2ccc(F)cc2)nc1-c1cccs1 [Preparation Example 577],B (A≧20>B≧10>C (minute))
28,CN(C)c1ncc(-c2nc(-c3cccs3)c(CC(=O)O)s2)cn1 [Preparation Example 580],C (A≧20>B≧10>C (minute))

row,SMILES,100% inhibition time range
1,COc1ccc(-c2nc(-c3ccc(Cl)c(F)c3)c(CC(=O)O)s2)cc1 [Preparation Example 582],A (A≧20>B≧10>C (minute))
2,O=C(O)Cc1sc(-c2cc3ccccc3s2)nc1-c1ccc(Cl)c(F)c1 [Preparation Example 583],B (A≧20>B≧10>C (minute))
3,CN(C)c1ccc(-c2nc(-c3ccc(Cl)c(F)c3)c(CC(=O)O)s2)cn1 [Preparation Example 585],C (A≧20>B≧10>C (minute))
4,O=C(O)Cc1sc(-c2ccc(Cl)cc2)nc1-c1ccc(Cl)s1 [Preparation Example 588],C (A≧20>B≧10>C (minute))
5,CN(C)c1ccc(-c2nc(-c3ccc(Cl)s3)c(CC(=O)O)s2)cc1 [Preparation Example 589],A (A≧20>B≧10>C (minute))
6,COc1ccc(-c2nc(-c3ccc(Cl)s3)c(CC(=O)O)s2)cn1 [Preparation Example 591],B (A≧20>B≧10>C (minute))
7,CN(C)c1ccc(-c2nc(CC(=O)O)c(-c3ccc(Cl)s3)s2)cn1 [Preparation Example 608],B (A≧20>B≧10>C (minute))
8,CN(C)c1ncc(-c2nc(CC(=O)O)c(-c3ccc(Cl)s3)s2)cn1 [Preparation Example 611],B (A≧20>B≧10>C (minute))
9,CC(C(=O)O)c1nc(-c2ccc(F)cc2)oc1-c1ccsc1 (stereo not shown) [Preparation Example 613],C (A≧20>B≧10>C (minute))
10,O=C(O)Cc1nc(-c2ccc(F)cc2)oc1-c1cccs1 [Preparation Example 614],C (A≧20>B≧10>C (minute))
11,NC(=O)Cc1nc(-c2ccc(F)cc2)oc1-c1ccsc1 [Preparation Example 615],B (A≧20>B≧10>C (minute))
12,CCN(CC)C(=O)Cc1nc(-c2ccc(F)cc2)oc1-c1ccsc1 [Preparation Example 617],B (A≧20>B≧10>C (minute))
13,NC(C(=O)O)c1nc(-c2ccc(F)cc2)oc1-c1ccc(Cl)s1 (stereo not shown) [Preparation Example 627],C (A≧20>B≧10>C (minute))
14,CN(C)c1cnc(-c2nc(CC(=O)O)c(-c3ccc(Cl)s3)o2)cn1 [Preparation Example 628],C (A≧20>B≧10>C (minute))
15,O=C(O)Cc1nc(-c2ccc3nccn3c2)oc1-c1ccc(Cl)s1 [Preparation Example 630],C (A≧20>B≧10>C (minute))
16,Clc1cc(-c2ncc(-c3cccnc3)[nH]2)cs1 [Preparation example 24],C (A≧20>B≧10>C (minute))
17,CCc1nc(-c2ccc(C#N)cc2)[nH]c1-c1ccccc1 [Preparation example 27],B (A≧20>B≧10>C (minute))
18,CCc1nc(-c2ccc(C)nc2)[nH]c1-c1ccccc1 [Preparation example 28],B (A≧20>B≧10>C (minute))
19,CCCc1nc(-c2ccc(C#N)cc2)[nH]c1-c1ccccc1 [Preparation example 31],A (A≧20>B≧10>C (minute))
20,"Cl.Cl.N#CCCc1[nH]c(-c2ccc(F)cc2)nc1-c1cccnc1 [Preparation example 43, 5-(2-cyanoethyl)-2-(4-fluorophenyl)-4-(3-pyridyl)-imidazole dihydrochloride]",C (A≧20>B≧10>C (minute))
21,N#CCCc1nc(-c2ccc(F)cc2)[nH]c1-c1ccsc1 [Preparation example 46],B (A≧20>B≧10>C (minute))
22,CCc1nc(-c2ccc(F)cc2)[nH]c1-c1ccc(C)nc1 [Preparation example 47],B (A≧20>B≧10>C (minute))
23,CCc1nc(-c2ccc(F)cc2)[nH]c1-c1cccnc1C [Preparation example 48],C (A≧20>B≧10>C (minute))
24,"CCc1[nH]c(-c2sccc2CO)nc1-c1cccnc1.Cl.Cl [Preparation example 67, 5-ethyl-2-(3-hydroxymethylthiphen-2-yl)-4-(3-pyridyl)imidazole dihydrochloride]",B (A≧20>B≧10>C (minute))
25,"CCc1[nH]c(-c2ccc(F)cc2)nc1C(=O)c1ccccn1 [Preparation example 72, 5-ethyl-2-(4-fluorophenyl)-imidazol-4-yl-(2-pyridyl) ketone]",C (A≧20>B≧10>C (minute))
26,"CCc1[nH]c(-c2ccc(F)cc2)nc1-c1cccnc1.Cl.Cl [Preparation example 80, 5-ethyl-2-(4-fluorophenyl)-4-(3-pyridyl)imidazole dihydrochloride]",B (A≧20>B≧10>C (minute))
27,CCc1nc(-c2ccc(C)nc2)[nH]c1-c1cncs1 [Preparation example 83],B (A≧20>B≧10>C (minute))
